Source: patent publication US20200397795A1, “PROPHYLACTIC TREATMENT OF VENOUS THROMBOEMBOLISM” (JANSSEN PHARMACEUTICALS, INC., priority 2019, published 2020)

Test system: venous thromboembolism (VTE) in patients hospitalized for acute medical illness
Assay: MAGELLAN (Study 1): efficacy of oral rivaroxaban 10 mg OD 35 days vs sc enoxaparin 40 mg OD 10 days then placebo
Assay type: in vivo
Protocol: The objective of Study 1 (MAGELLAN or MAGELLAN Study) was to compare efficacy and safety of venous thromboembolism (VTE) prophylaxis with oral rivaroxaban 10 mg once daily administered for 35±4 days (hereafter referred to as 35 days or Day 35) to subcutaneous enoxaparin 40 mg once daily (OD) administered for 10±4 days (hereafter referred to as 10 days or Day 10) in men and women aged 40 years or above, who have been hospitalized for a medical illness.
Diagnosis and main criteria for inclusion in Study 1 was men and women 40 years or above and at risk for VTE being hospitalized for acute medical illness conditions, including: heart failure (New York Heart Association [NYHA] class III or IV); active cancer (e.g., admitted for chemotherapy or for the treatment of a complication of active cancer); acute ischemic stroke; acute infectious and inflammatory diseases, including acute rheumatic diseases; and acute respiratory insufficiency. Also at least one additional risk factor for VTE, including: severe varicosis (varicosities); chronic venous insufficiency; history of cancer; history of deep vein thrombosis (DVT) or pulmonary embolism (PE); history of heart failure (NYHA class III or IV); thrombophilia (hereditary or acquired); recent major surgery (6-12 weeks); recent serious trauma (6-12 weeks); hormone replacement therapy; advanced age greater than or equal to 75 years; morbid obesity (body mass index (BMI) 35 kg/m^2 or higher); and acute infectious disease contributing to hospitalization.
The study was conducted in a prospective, randomized, double-blind, double dummy, active comparator-controlled, multicenter and multinational design. There were 8101 subjects were randomized at 556 study centers in 52 countries to one of the two treatment groups. Of the 8101 randomized subjects, 4050 were randomized to active rivaroxaban and 4051 were randomized to active enoxaparin.
Primary Endpoints: The primary efficacy variable was a composite of the number of events of: asymptomatic proximal DVT in lower extremity detected by mandatory bilateral lower extremity venous ultrasonography; symptomatic DVT in lower extremity, proximal or distal; symptomatic, non-fatal PE; and VTE-related death defined as either a well-documented fatal PE, or sudden death with no other plausible explanation. The two primary efficacy endpoints were (i) test of superiority at Day 35 (Days 29-41, inclusive) and (ii) test of non-inferiority at Day 10 (Days 6-15, inclusive).
Secondary Endpoints: The first major secondary efficacy endpoint was defined as a composite of the test of superiority at Day 35 with component of VTE-related death substituted by all-cause mortality, up to Day 35. The second major efficacy secondary efficacy endpoint was the test for superiority at Day 10 using the same composite endpoint as the Day 10 non-inferiority test.
For both primary efficacy endpoints, the relative risk ratio (rivaroxaban/enoxaparin) with respect to the incidences of the primary efficacy endpoint was estimated based on a stratified estimator using Mantel-Haenszel weights (based on sample sizes by geographic region). The corresponding asymptotic 2-sided 95% confidence interval based on the approximation to the normal distribution was determined. Sensitivity analyses were performed for the primary efficacy endpoints.
The primary efficacy variable was a composite of the number of events of (1) asymptomatic proximal DVT in lower extremity detected by mandatory bilateral lower extremity venous ultrasonography; (2) symptomatic DVT in lower extremity, proximal or distal; (3) symptomatic, nonfatal PE; and (4) VTE-related death. […]

[1] = Day 10 + 5, PP Day 10 plus major and clinically relevant bleeds
[2] = Day 10 + 5, per protocol Day 10 analysis set
[3] = Day 10 + 5 up to Day 35 + 6, mITT (Day 10 to Day 35) analysis set
[4] = Day 10 + 5 up to Day 35 + 6, mITT (Day 10 to Day 35) analysis set, listed as rivaroxaban
[5] = Day 35 + 6, mITT Day 35 analysis set
[6] = Day 35 + 6, mITT Day 35 analysis set, listed as rivaroxaban
[7] = Day 35 + 6, mITT Day 35 plus major and clinically relevant bleeds
[8] = Day 35, mITT Day 35 analysis set
[9] = rivaroxaban-placebo phase (Day 10 to Day 35), mITT (Day 10 to Day 35)

O=C(NC[C@H]1CN(c2ccc(N3CCOCC3=O)cc2)C(=O)O1)c1ccc(Cl)s1 [Rivaroxaban, 5-chloro-N-({(5S)-2-oxo-3-[4-(3-oxo-4-morpholinyl)phenyl]-1,3,oxazolidin-5-yl}methyl)-2-thiophenecarboxamide]
Major vascular events (CV death, acute myocardial infarction, or acute ischemic stroke), incidence (Day 10): 1.0% | Symptomatic VTE excluding VTE-related death, incidence (Day 10): 0.5% | Symptomatic VTE including death, incidence (Day 10): 0.7% | Net clinical benefit component: asymptomatic lower proximal deep vein thrombosis [1]: 71 (2.4%) | Net clinical benefit component: clinically relevant non-major bleeding [1]: 51 (1.7%) | Net clinical benefit component: death (pulmonary embolism) [1]: 3 (0.1%) | Net clinical benefit component: major bleeding [1]: 9 (0.3%) | Net clinical benefit component: symptomatic deep vein thrombosis in lower extremity [1]: 7 (0.2%) | Net clinical benefit component: symptomatic non-fatal pulmonary embolism [1]: 6 (0.2%) | Net clinical benefit component: venous thromboembolism related death [1]: 3 (0.1%) | Net clinical benefit, any event, incidence [1]: 134 (4.5%) | Net clinical benefit, any event, incidence (Day 10 + 5, PP Day 10 plus major and clinically relevant bleeds, listed as rivaroxaban): 4.5% | Asymptomatic proximal deep vein thrombosis in lower extremity, incidence [2]: 71 (2.4%) | Death (pulmonary embolism cannot be excluded), incidence [2]: 3 (0.1%) | Primary efficacy composite, any event, incidence [2]: 78 (2.7%) | Symptomatic deep vein thrombosis in lower extremity, incidence [2]: 7 (0.2%) | Venous thromboembolism related death, incidence [2]: 3 (0.1%) | Primary efficacy composite, any event, incidence (Day 10 + 5, per protocol Day 10 analysis set, listed as rivaroxaban): 2.7% | Asymptomatic proximal deep vein thrombosis in lower extremity, incidence [3]: 81 (2.1%) | Death (pulmonary embolism cannot be excluded), incidence [3]: 8 (0.3%) | Death (pulmonary embolism), incidence [3]: 1 (<0.1%) | Symptomatic deep vein thrombosis in lower extremity, incidence [3]: 3 (0.1%) | Symptomatic non-fatal pulmonary embolism, incidence [3]: 1 (<0.1%) | Venous thromboembolism related death, incidence [3]: 9 (0.3%) | Primary efficacy composite, any event, incidence (Day 10 + 5 up to Day 35 + 6, mITT (Day 10 to Day 35) analysis set, rivaroxaban-placebo phase): 72 (2.5%) | Primary efficacy composite, any event, incidence (Day 10 + 5 up to Day 35 + 6, mITT (Day 10 to Day 35) analysis set, rivaroxaban-placebo phase, listed as rivaroxaban): 2.5% | Asymptomatic proximal deep vein thrombosis in lower extremity, incidence [4]: 2.1% | Venous thromboembolism related death, incidence [4]: 0.3% | Relative risk (rivaroxaban/enoxaparin), primary efficacy composite (Day 10, PP Day 10 analysis set): 0.968 | Relative risk reduction, primary efficacy composite (Day 10, PP Day 10 analysis set): 3.25% | Relative risk vs enoxaparin, subgroup (Day 10 PP, active cancer): 2.500 | Relative risk vs enoxaparin, subgroup (Day 10 PP, age subgroup 65 to <75 years): 1.88 | Relative risk vs enoxaparin, subgroup (Day 10 PP, complete immobilization >6 days post randomization): 0.671 | Relative risk vs enoxaparin, subgroup (Day 10 PP, complete immobilization post randomization 4-6 days): 1.75 | Major vascular events, incidence (Day 35): 1.8% | Symptomatic VTE excluding VTE-related death, incidence (Day 35): 0.6% | Symptomatic VTE including death, incidence (Day 35): 1.0% | Asymptomatic proximal deep vein thrombosis in lower extremity, incidence [5]: 103 (3.5%) | Death (pulmonary embolism cannot be excluded), incidence [5]: 18 (0.6%) | Death (pulmonary embolism), incidence [5]: 1 (<0.1%) | Primary efficacy composite, any event, incidence [5]: 131 (4.4%) | Symptomatic deep vein thrombosis in lower extremity, incidence [5]: 13 (0.4%) | Symptomatic non-fatal pulmonary embolism, incidence [5]: 10 (0.3%) | Venous thromboembolism related death, incidence [5]: 19 (0.6%) | Asymptomatic proximal deep vein thrombosis in lower extremity, incidence [6]: 3.5% | Primary efficacy composite, any event, incidence [6]: 4.4% | Venous thromboembolism related death, incidence [6]: 0.6% | Net clinical benefit component: asymptomatic lower proximal deep vein thrombosis [7]: 104 (3.4%) | Net clinical benefit component: clinically relevant non-major bleeding [7]: 124 (4.1%) | Net clinical benefit component: death (pulmonary embolism cannot be excluded) [7]: 18 (0.6%) | Net clinical benefit component: death (pulmonary embolism) [7]: 1 (<0.1%) | Net clinical benefit component: major bleeding [7]: 43 (1.4%) | Net clinical benefit component: symptomatic deep vein thrombosis in lower extremity [7]: 13 (0.4%) | Net clinical benefit component: symptomatic non-fatal pulmonary embolism [7]: 10 (0.3%) | Net clinical benefit component: venous thromboembolism related death [7]: 19 (0.6%) | Net clinical benefit, any event, incidence [7]: 286 (9.4%) | Net clinical benefit, any event, incidence (Day 35 + 6, mITT Day 35 plus major and clinically relevant bleeds, listed as rivaroxaban): 9.4% | Relative risk (rivaroxaban/enoxaparin), primary efficacy composite [8]: 0.771 | Relative risk reduction, primary efficacy composite [8]: 22.89% | Composite endpoint including all-cause mortality, incidence (Day 35, mITT Day 35 expanded): 8.6% | Relative risk, composite endpoint including all-cause mortality (Day 35, mITT Day 35 expanded): 0.931 | Relative risk vs enoxaparin, subgroup (Day 35 mITT, active cancer): 1.340 | Relative risk vs enoxaparin, subgroup (Day 35 mITT, acute infectious and inflammatory disease): 0.657 | Relative risk vs enoxaparin, subgroup (Day 35 mITT, age subgroup 75 years): 0.624 | Relative risk vs enoxaparin, subgroup (Day 35 mITT, subjects in Western Europe (including Australia, New Zealand, Israel)): 0.5 | All-cause mortality, incidence (Day 90): 6.7% | Major vascular events, incidence (Day 90): 2.8% | Symptomatic VTE excluding VTE-related death, incidence (Day 90): 0.7% | Symptomatic VTE including death, incidence (Day 90): 1.7% | Relative risk reduction, primary efficacy composite [9]: 35.14% | Relative risk, primary efficacy composite [9]: 0.649
